Results from US5087624A, “Chromic picolinate treatment” (Nutrition 21, priority 1990, dated 1992).
Where “and” joins values, the source holds several entries; their conditions need not be identical. Equal values may be shown once. Entries after “also recorded” stand apart in the source; their conditions may differ.

Key:
[1] = supplemental trivalent chromium; cited from earlier work
insulin = experiment: Binding to insulin
[2] = tested on: Glucose Tolerance Factor activity; experiment: Glucose Tolerance Factor activity
[3] = Absorption of orally given Cr-51 labelled chromium: radioactivity in liver and kidney; format: in vivo, male Sprague-Dawley rats; conditions: relative to chromic chloride, from Table 1
Excerpt: The solution was cooled to room temperature before use.

[4] = Cross-over study in subjects with adult onset diabetes mellitus (EXAMPLE 4); format: in vivo, human
Excerpt: Normal values are 5.5% to 7.5%.

insulin receptors = experiment: Binding to insulin receptors
rats = experiment: Oral toxicity experiment; format: in vivo, rat
Procedure: In a toxicity experiment, rats weighing a mean of 223.4 g were given an oral suspension of 100 mg, 300 mg and 500 mg chromic tripicolinate in water. […] The tests were stopped at 500 mg because it was impossible to obtain a workable suspension beyond this level.

[5] = Anabolic effect in male weight-training students (EXAMPLE 5); format: in vivo, human
Procedure: This study was performed to evaluate the anabolic effect of chromic tripicolinate in male subjects.
At the start of the study, 10 male university students enrolled in weight training classes, were given, at random, a 40-day supply of capsules that contained either placebo (5 mg of calcium phosphate) or chromic tripicolinate (1.6 mg chromic tripicolinate admixed with 5 mg of […], which provided 200 ug of chromium). The identity of the capsules was known only to an individual who was not in any way involved in the study. During the 40-day period, each of the volunteers followed a prescribed weight lifting protocol for a total of 3 hours per week. Measurements taken at the beginning and again at the end of the study included various skin-fold thicknesses, bicep and calf circumferences, and body weight. Percent body fat was derived from the sum of the triceps, subscapular and chest skinfolds. Lean body mass was derived from anthropometrically-determined percent body fat: weight -(weight ×percent body fat).

[6] = Double-blind cross-over study of serum lipids (EXAMPLE 3); format: in vivo, human
Procedure: The placebo contained only 5 mg calcium phosphate. […] Compliance by subjects was monitored by capsule count. The foregoing study protocol is illustrated in FIG. 1.
Student's t test and p values were determined with the program WORMSTAT^TM (available from Small Business Computers, New England, U.S.A.).

[7] = start of 42-day treatment (baseline), mean ± SD of 28 subjects

## [Cl][Cr]([Cl])[Cl] [chromic chloride]
[1]
  risk factors associated with maturity-onset diabetes and cardiovascular diseases: associated with improvements of risk factors

## chromic tripicolinate
insulin
  binding to insulin: binds to insulin
[2]
  Glucose Tolerance Factor activity: has Glucose Tolerance Factor activity
[3]
  rate of absorption greater than that of chromic chloride: about 4 times
[4]; P was not <0.05
  HDL trend: trends were favorable
  cholesterol trend: trends were favorable
[4]; diabetic subjects
  LDL decrease: 8%
  blood pressure change: no significant changes
  fasting glucose change: significant decreases
  glycosylated hemoglobin change: significant decreases
  heart rate change: no significant changes
  temperature change: no significant changes
  weight change: no significant changes
[4]; treatment versus placebo groups
  Hemoglobin A1 C decrease: 12%
Insulin receptors
  binding to insulin receptors: binds to insulin and insulin receptors
rats; 70 Kg human, extrapolated from rat
  dose to be ingested before any effects would be observed: > 156 grams
rats; oral suspension 100 mg, 300 mg and 500 mg in water
  deaths: No deaths occurred
rats; rats, oral
  oral lethal dose: > 2200 mg/kg
[5]; 40 days, P=0.0056
  bicep circumference increase: 1.4±0.45 cm
[5]; 40 days, P=0.017
  calculated lean body mass increase: 1.6 kg
[5]; Student's t test, P=0.0198
  increase in lean body mass compared with placebo group: significantly greater
[6]; 28 subjects, 42 days
  Apolipoprotein B reduction: 16%
  LDL-cholesterol decrease: 10%
  Total cholesterol decrease: 7%
[6]; 28 subjects, 42 days, p<0.001
  LDL-cholesterol change: significant (p<0.001) reductions
  Total cholesterol change: significant (p<0.001) reductions
[6]; 28 subjects, p=0.001
  Apolipoprotein B change: decreased significantly
[6]; 28 subjects, p=0.003
  Apolipoprotein A1 change: significantly elevated
[6]; 200 micrograms Cr daily
  fine rash about forearms: one subject on chromium supplementation
  mouth ulcers: the other on chromium supplement
[6]; 42 days
  blood pressure change: No significant changes
  heart rate change: No significant changes
  serum triglycerides change: No significant changes
  temperature change: No significant changes
  weight change: No significant changes
[6]; 42 days, 28 subjects, p = .001
  Apo B, Chng.: -25 mg/dL
[6]; 42 days, 28 subjects, p = .003
  Apo A, Chng.: +16 mg/dl
[6]; end of 42-day treatment, mean ± SD of 28 subjects
  Apo B, Final: 130 mg/dL
[6]; final 42 days, placebo-first group, p=0.003
  LDL-cholesterol change: decreased significantly
[6]; final 42 days, placebo-first group, p=0.009
  Total cholesterol change: decreased significantly
[6]; first 6-week period, chromic tripicolinate-first group, p=0.003
  Apolipoprotein B change: significantly decreased
[6]; first 6-week period, chromic tripicolinate-first group, p=0.007
  Total cholesterol change: significantly decreased
[6]; first 6-week period, chromic tripicolinate-first group, p=0.015
  LDL-cholesterol change: significantly decreased
[6]; first 6-week period, chromic tripicolinate-first group, p=0.047
  Apolipoprotein A1 change: significantly elevated
[6]; in vivo
  other abnormalities: No other abnormalities were noted
[6]; of final 28 subjects
  subjects with decreased LDL-cholesterol: 20
  subjects with lower total cholesterol: 22
  subjects with total cholesterol elevated less than 0.1 mmole/1 (5 mg/dl): 4
  subjects with unchanged LDL-cholesterol: 3
  subjects with unchanged total cholesterol: 2
[6]; p>0.05
  HDL-cholesterol change: increased slightly but not significantly
[6]; placebo-first group, after supplementation, p=0.072
  Apolipoprotein B change: decreased, but not significantly
[6]; placebo-first group, supplementation period, p=0.007
  Apolipoprotein A1 change: increased significantly
[6]; [7]
  Apo A, Init: 147 ± 28 mg/dL
  Apo B, Init: 155 ± 50 mg/dL and 155 mg/dL
[6]; summary
  Apolipoprotein A1 change, summary: elevated; also recorded: significant elevation
  Apolipoprotein B change, summary: decreased; also recorded: significant reduction
[6]; summary of Examples 3 and 4
  LDL-cholesterol change, summary: decreased
  Total cholesterol change, summary: decreased
